Test [1] addresses Insulin-like growth factor 1 receptor (Homo sapiens) (UniProt P08069). Put plainly: Inhibition of human IGF1R catalytic domain expressed in baculovirus assessed as substrate phosphorylation using fluorescence-labelled peptides as substrate at 0.2 uM after 90 mins by microfluidic peptide phosphorylation assay.
Test [2] addresses Calcium/calmodulin-dependent protein kinase type II subunit delta (Homo sapiens) (UniProt Q13557). Put plainly: Inhibition of human full length CAMK2D expressed in baculovirus assessed as substrate phosphorylation using fluorescence-labelled peptides as substrate at 0.2 uM after 90 mins by microfluidic peptide phosphorylation assay.
Test [3] deals with Protein kinase C delta type (Homo sapiens) (UniProt Q05655). The note with it: 0.1 uM.
Description: Inhibition of human truncated PKC delta expressed in baculovirus assessed as substrate phosphorylation using fluorescence-labelled peptides as substrate at 0.1 uM after 90 mins by microfluidic peptide phosphorylation assay
In test [4] the target is Tyrosine-protein kinase BTK (Homo sapiens) (UniProt Q06187). To be noted: 0.1 uM.
Description: Inhibition of human full length BTK expressed in baculovirus assessed as substrate phosphorylation using fluorescence-labelled peptides as substrate at 0.1 uM after 90 mins by microfluidic peptide phosphorylation assay
In test [5] the test system is T1, Receptor-type tyrosine-protein kinase FLT3 (Homo sapiens), P36888 [D835Y].
T1 sequence (whole entry): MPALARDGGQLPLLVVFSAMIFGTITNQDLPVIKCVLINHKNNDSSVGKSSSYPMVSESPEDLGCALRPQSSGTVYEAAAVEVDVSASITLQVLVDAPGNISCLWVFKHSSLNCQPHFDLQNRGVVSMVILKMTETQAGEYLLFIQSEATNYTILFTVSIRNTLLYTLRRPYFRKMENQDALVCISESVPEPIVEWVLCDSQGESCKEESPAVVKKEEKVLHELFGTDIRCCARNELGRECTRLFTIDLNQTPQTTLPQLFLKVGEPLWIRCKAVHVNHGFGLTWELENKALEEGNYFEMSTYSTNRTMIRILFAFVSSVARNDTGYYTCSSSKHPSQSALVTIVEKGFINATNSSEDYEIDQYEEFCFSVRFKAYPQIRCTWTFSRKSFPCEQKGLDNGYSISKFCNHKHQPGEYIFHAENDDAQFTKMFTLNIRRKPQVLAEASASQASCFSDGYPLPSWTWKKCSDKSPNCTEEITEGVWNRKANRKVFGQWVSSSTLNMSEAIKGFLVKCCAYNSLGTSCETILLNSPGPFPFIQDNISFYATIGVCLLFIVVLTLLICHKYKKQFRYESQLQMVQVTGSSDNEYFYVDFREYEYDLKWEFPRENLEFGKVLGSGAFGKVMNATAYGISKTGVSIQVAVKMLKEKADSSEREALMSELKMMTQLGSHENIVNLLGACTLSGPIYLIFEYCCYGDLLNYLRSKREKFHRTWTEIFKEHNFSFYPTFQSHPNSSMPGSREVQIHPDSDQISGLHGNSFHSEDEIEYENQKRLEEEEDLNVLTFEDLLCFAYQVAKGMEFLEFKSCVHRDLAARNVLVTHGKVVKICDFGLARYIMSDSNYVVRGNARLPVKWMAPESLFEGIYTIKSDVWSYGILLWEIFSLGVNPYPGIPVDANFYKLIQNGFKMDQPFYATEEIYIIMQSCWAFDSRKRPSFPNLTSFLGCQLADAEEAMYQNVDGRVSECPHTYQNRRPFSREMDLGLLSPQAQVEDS
Put plainly: Inhibition of human FLT3 D835Y mutant catalytic domain expressed in baculovirus assessed as substrate phosphorylation using fluorescence-labelled peptides as substrate at 9 uM after 90 mins by microfluidic peptide phosphorylation assay.

Test [6] has as its target Tyrosine-protein kinase HCK (Homo sapiens) (UniProt P08631). Kind of test: Inhibition of human HCK catalytic domain expressed in baculovirus assessed as substrate phosphorylation using fluorescence-labelled peptides as substrate at 9 uM after 90 mins by microfluidic peptide phosphorylation assay.
The target of test [7] is T2, Mitogen-activated protein kinase 12 (Homo sapiens) (UniProt P53778).
T2 sequence (whole entry): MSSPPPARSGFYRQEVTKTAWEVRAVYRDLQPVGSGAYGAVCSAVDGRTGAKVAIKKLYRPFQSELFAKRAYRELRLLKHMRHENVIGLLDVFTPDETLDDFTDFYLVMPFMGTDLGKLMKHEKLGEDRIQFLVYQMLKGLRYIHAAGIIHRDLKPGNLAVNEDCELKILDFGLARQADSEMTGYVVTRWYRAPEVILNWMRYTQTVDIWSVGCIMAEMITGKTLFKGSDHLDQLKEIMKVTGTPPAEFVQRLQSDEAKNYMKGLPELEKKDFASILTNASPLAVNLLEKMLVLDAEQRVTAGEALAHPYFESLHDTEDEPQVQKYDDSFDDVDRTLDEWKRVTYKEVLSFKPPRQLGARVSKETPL
Kind of test: Inhibition of human full length p38 gamma expressed in Escherichia coli cell assessed as substrate phosphorylation using fluorescence-labelled peptides as substrate at 1000 uM after 90 mins by microfluidic peptide phosphorylation assay.

For test [8], the target named is T3, MAP kinase-activated protein kinase 5 (Homo sapiens) (UniProt Q8IW41).
T3 sequence (whole entry): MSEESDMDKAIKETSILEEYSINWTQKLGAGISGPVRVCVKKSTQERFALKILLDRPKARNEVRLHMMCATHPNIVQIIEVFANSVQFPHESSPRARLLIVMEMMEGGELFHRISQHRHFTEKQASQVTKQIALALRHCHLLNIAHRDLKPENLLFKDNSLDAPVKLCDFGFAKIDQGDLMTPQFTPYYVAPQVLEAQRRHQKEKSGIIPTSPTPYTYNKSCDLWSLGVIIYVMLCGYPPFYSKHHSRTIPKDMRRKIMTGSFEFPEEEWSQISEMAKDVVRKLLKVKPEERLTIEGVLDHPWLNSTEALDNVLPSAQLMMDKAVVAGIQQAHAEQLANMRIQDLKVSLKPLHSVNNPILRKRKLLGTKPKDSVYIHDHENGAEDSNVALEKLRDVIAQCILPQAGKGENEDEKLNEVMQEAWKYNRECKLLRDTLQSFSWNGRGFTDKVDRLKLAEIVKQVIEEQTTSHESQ
Kind of test: Inhibition of human full length PRAK expressed in baculovirus assessed as substrate phosphorylation using fluorescence-labelled peptides as substrate at 1000 uM after 90 mins by microfluidic peptide phosphorylation assay.

The target in test [9] is Protein kinase C gamma type (Homo sapiens) (UniProt P05129). Kind of test: Inhibition of human truncated PKC gamma expressed in baculovirus assessed as substrate phosphorylation using fluorescence-labelled peptides as substrate at 1000 uM after 90 mins by microfluidic peptide phosphorylation assay.
The target in test [10] is Receptor-type tyrosine-protein kinase FLT3 (Homo sapiens) (UniProt P36888). Put plainly: Inhibition of human FLT3 catalytic domain expressed in baculovirus assessed as substrate phosphorylation using fluorescence-labelled peptides as substrate at 0.06 uM after 90 mins by microfluidic peptide phosphorylation assay.
Test [11] deals with Serine/threonine-protein kinase PAK 2 (Homo sapiens) (UniProt Q13177). Put plainly: Inhibition of human truncated PAK2 expressed in Escherichia coli cell assessed as substrate phosphorylation using fluorescence-labelled peptides as substrate at 70 uM after 90 mins by microfluidic peptide phosphorylation assay.
Test [12] addresses Hepatocyte growth factor receptor (Homo sapiens) (UniProt P08581). Put plainly: Inhibition of human MET cytoplasmic domain expressed in baculovirus assessed as substrate phosphorylation using fluorescence-labelled peptides as substrate at 70 uM after 90 mins by microfluidic peptide phosphorylation assay.

The source of these data is ChEMBL document CHEMBL3132769, “Fragment growing to retain or alter the selectivity of anchored kinase hinge-binding fragments” (Medchemcomm, 2014).

Chain of Tyrosine-protein kinase HCK (Homo sapiens) (P08631 2-526 limits assumed): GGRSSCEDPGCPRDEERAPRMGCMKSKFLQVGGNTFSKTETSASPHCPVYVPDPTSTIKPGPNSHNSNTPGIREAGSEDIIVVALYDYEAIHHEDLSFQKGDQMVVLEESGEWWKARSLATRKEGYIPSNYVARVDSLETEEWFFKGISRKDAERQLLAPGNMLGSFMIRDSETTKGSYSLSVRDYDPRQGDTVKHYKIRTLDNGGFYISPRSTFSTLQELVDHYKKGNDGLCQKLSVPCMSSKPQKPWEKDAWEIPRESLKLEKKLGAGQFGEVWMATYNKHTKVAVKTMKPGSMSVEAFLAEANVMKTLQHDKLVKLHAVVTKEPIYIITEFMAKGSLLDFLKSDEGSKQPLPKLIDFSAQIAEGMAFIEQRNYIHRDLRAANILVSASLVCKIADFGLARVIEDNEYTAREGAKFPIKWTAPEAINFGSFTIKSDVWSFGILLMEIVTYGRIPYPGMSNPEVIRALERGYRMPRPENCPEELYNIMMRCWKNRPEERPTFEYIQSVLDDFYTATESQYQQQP
Chain of Serine/threonine-protein kinase PAK 2 (Homo sapiens) (Q13177 whole entry, the tested form may be a part): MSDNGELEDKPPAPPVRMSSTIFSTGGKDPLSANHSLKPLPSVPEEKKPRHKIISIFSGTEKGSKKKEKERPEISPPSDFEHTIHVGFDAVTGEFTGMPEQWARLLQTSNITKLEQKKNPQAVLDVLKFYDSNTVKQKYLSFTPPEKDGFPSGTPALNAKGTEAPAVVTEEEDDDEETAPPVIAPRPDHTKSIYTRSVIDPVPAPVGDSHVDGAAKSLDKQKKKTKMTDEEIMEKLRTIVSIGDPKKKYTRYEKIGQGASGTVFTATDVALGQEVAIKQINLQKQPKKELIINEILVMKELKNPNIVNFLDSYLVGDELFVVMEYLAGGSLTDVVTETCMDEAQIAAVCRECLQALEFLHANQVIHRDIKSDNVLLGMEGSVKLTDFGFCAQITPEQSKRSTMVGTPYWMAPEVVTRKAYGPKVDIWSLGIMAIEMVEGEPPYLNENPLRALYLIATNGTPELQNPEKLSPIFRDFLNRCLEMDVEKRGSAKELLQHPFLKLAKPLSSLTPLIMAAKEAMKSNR
Chain of Hepatocyte growth factor receptor (Homo sapiens) (P08581 whole entry, the tested form may be a part): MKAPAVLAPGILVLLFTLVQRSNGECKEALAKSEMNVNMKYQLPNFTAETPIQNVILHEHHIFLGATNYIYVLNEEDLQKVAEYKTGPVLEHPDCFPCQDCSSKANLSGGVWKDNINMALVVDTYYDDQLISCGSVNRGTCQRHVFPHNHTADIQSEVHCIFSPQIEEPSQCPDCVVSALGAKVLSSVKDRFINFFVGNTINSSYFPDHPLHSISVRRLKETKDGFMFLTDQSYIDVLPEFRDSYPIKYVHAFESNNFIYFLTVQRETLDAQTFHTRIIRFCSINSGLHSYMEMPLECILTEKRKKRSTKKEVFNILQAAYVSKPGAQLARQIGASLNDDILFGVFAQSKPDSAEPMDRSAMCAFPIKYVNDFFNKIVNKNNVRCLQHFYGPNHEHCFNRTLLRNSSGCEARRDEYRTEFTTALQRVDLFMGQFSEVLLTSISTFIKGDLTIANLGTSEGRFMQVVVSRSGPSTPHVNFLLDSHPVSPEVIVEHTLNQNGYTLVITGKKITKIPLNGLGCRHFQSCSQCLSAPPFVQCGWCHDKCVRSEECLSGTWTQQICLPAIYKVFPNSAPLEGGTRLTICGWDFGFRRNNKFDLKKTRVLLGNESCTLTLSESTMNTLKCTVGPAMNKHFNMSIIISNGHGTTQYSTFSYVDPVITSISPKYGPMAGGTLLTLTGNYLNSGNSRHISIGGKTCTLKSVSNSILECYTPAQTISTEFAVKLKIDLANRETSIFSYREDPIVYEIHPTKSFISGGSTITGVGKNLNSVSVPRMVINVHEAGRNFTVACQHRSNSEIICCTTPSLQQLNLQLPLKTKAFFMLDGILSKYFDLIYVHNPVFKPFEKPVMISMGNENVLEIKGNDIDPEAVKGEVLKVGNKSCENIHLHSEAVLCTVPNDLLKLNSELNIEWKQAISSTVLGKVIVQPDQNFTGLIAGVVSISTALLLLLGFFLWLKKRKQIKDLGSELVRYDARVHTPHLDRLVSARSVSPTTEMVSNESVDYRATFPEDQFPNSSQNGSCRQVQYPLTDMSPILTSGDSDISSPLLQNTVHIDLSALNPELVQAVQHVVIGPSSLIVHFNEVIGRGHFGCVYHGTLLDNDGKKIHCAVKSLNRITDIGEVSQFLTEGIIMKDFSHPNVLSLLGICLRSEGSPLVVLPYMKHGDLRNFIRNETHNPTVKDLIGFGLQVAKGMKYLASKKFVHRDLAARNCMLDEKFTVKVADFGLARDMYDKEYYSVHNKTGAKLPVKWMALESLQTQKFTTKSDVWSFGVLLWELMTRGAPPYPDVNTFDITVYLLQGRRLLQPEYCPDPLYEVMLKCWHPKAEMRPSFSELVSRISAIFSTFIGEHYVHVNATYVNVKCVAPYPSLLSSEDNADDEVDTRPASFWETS
Chain of Tyrosine-protein kinase BTK (Homo sapiens) (Q06187 whole entry): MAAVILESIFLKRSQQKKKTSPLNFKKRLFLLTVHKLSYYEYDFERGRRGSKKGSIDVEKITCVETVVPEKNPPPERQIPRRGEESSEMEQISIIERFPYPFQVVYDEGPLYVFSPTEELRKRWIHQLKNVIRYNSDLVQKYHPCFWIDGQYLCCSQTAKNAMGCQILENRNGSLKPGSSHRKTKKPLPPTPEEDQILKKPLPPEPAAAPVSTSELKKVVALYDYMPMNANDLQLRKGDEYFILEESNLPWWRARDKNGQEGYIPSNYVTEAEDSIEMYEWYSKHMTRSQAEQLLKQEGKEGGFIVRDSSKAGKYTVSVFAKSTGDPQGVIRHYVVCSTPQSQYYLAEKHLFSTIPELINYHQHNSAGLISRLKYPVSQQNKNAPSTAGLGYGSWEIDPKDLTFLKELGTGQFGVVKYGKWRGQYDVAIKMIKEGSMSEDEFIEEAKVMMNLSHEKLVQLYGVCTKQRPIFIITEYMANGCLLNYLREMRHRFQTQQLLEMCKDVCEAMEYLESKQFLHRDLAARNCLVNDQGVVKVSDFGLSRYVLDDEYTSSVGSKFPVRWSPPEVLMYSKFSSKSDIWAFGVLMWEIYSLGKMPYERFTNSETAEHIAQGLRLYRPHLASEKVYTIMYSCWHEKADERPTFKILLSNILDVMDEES
Chain of Calcium/calmodulin-dependent protein kinase type II subunit delta (Homo sapiens) (Q13557 whole entry): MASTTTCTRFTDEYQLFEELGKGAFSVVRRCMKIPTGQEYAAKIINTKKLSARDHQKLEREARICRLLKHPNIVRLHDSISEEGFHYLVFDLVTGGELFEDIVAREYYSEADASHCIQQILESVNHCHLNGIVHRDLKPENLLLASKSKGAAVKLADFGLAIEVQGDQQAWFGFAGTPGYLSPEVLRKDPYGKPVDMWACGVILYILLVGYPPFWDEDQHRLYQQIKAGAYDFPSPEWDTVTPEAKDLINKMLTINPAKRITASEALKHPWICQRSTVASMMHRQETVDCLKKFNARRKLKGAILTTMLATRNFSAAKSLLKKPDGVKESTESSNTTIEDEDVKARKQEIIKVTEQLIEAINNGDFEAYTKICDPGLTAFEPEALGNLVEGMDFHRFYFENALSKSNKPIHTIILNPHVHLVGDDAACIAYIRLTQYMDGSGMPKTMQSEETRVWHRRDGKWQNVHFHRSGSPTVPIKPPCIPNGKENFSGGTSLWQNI
Chain of Protein kinase C delta type (Homo sapiens) (Q05655 whole entry, looked up): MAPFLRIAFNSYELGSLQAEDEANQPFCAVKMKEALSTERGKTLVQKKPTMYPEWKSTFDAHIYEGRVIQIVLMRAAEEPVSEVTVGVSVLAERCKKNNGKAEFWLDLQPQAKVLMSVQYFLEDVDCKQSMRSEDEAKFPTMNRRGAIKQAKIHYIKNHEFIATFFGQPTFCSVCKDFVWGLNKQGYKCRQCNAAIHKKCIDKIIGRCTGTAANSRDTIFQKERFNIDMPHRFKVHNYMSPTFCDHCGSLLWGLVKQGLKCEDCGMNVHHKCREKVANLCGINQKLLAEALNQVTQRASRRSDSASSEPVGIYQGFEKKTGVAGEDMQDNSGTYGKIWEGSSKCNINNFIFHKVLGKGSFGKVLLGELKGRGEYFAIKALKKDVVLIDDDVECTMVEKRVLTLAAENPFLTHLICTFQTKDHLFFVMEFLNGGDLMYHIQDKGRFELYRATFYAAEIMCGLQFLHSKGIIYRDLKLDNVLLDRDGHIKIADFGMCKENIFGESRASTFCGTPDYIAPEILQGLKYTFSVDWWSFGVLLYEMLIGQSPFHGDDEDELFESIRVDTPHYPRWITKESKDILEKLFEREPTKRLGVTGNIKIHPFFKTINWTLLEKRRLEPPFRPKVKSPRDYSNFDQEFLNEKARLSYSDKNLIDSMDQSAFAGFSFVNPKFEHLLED

In general, inhibition refers to the drop in the measured response relative to a control, in per cent. In the case of `Clc1ccc(C2(c3ccc(-c4ncnc5[nH]cnc45)cc3)CCNCC2)cc1`, the inhibition in test [1] was 5%; in [2] it was 16%.
For the compound `C[C@H](CN(C)C)Oc1nc(Nc2cc3cccc(Cl)c3cn2)cnc1C#N`, the inhibition in test [3] and in test [4] was 0% in each case.
On to `NCC1CN(c2ncnc3[nH]c4cnccc4c23)CCO1` (configuration not stated), for which the inhibition is 95% in [5] and 29% in [6].
On to `c1cnc2[nH]ccc2c1`, for which the inhibition stood at 64% in test [7], 77% in test [8] and 57% in [9].
Regarding `NC1(Cc2ccc(Cl)cc2)CCN(c2ncnc3[nH]ccc23)CC1`, in [10], the inhibition came to 0%.
Consider `CNCc1ccc(-c2ncnc3[nH]cnc23)cc1`, for which the inhibition stood at 26% in test [11] and 0% in test [12].
